Measurements: ChEMBL document CHEMBL4627377, “Betulin isolated from Pyrola incarnata Fisch. inhibited lipopolysaccharide (LPS)-induced neuroinflammation with the guidance of computer-aided drug design” (Bioorg Med Chem Lett, 2020)
Active and inactive are the calls of the source. The calls are words filed in the database; no cut-off is given here.

Columns and labels:
BV-2 [1] = assay: Cytotoxicity against […] BV2 cells assessed as survival rate at 250 ug/ml; assay type: cell-based; conditions: mouse
BV-2 [2] = assay: Inhibition of LPS-induced IL-1beta production in […] BV2 cells at 250 ug/ml preincubated for 4 hrs followed by LPS stimulation and measured after 24 hrs by ELISA; assay type: functional, cell-based; conditions: Mus musculus
BV-2 [3] = assay: Inhibition of LPS-induced TNF-alpha production in […] BV2 cells at 250 ug/ml preincubated for 4 hrs followed by LPS stimulation and measured after 24 hrs by ELISA; assay type: functional, cell-based; conditions: Mus musculus
BV-2 [4] = assay: Inhibition of LPS-induced IL6 production in […] BV2 cells at 20 ug/ml preincubated for 4 hrs followed by LPS stimulation and measured after 24 hrs by ELISA; assay type: functional, cell-based; conditions: Mus musculus
BV-2 [5] = assay: Inhibition of LPS-induced NO release in […] BV2 cells at 20 ug/ml preincubated for 4 hrs followed by LPS stimulation and measured after 24 hrs by Griess reagent based assay; assay type: functional, cell-based; conditions: Mus musculus
BV-2 [6] = assay: Inhibition of LPS-induced JNK-46 phosphorylation in […] BV2 cells at 62.5 to 250 ug/ml preincubated for 4 hrs followed by LPS stimulation and measured after 24 hrs by Western blot analysis; assay type: functional, cell-based; conditions: Mus musculus
BV-2 [7] = assay: Cytotoxicity against […] BV2 cells assessed as survival rate at 125 ug/ml; assay type: cell-based; conditions: mouse
BV-2 [8] = assay: Inhibition of LPS-induced TNF-alpha production in […] BV2 cells preincubated for 4 hrs followed by LPS stimulation and measured after 24 hrs by ELISA; assay type: functional, cell-based; conditions: Mus musculus
BV-2 [9] = assay: Inhibition of LPS-induced NO release in […] BV2 cells at 62.5 to 250 ug/ml preincubated for 4 hrs followed by LPS stimulation and measured after 24 hrs by Griess reagent based assay; assay type: functional, cell-based; conditions: Mus musculus
BV-2 [10] = assay: Inhibition of LPS-induced JNK-54 phosphorylation in […] BV2 cells at 62.5 to 250 ug/ml preincubated for 4 hrs followed by LPS stimulation and measured after 24 hrs by Western blot analysis; assay type: functional, cell-based; conditions: Mus musculus
BV-2 [11] = assay: Inhibition of LPS-induced iNOS expression in […] BV2 cells at 250 ug/ml preincubated for 4 hrs followed by LPS stimulation and measured after 24 hrs by Western blot analysis; assay type: functional, cell-based; conditions: Mus musculus
BV-2 [12] = assay: Inhibition of LPS-induced JNK-46 activation in […] BV2 cells preincubated for 4 hrs followed by LPS stimulation and measured after 24 hrs by Western blot analysis; assay type: functional, cell-based; conditions: Mus musculus
BV-2 [13] = assay: Inhibition of LPS-induced IL-1beta production in […] BV2 cells preincubated for 4 hrs followed by LPS stimulation and measured after 24 hrs by ELISA; assay type: functional, cell-based; conditions: Mus musculus
BV-2 [14] = assay: Inhibition of LPS-induced NF-kappaB/p65 nuclear translocation in […] BV2 cells assessed as reduction in p65/NFkappaB level at 250 ug/ml by DAPI staining based fluorescence microscopic analysis; assay type: functional, cell-based; conditions: Mus musculus
BV-2 [15] = assay: Inhibition of LPS-induced JNK-54 activation in […] BV2 cells preincubated for 4 hrs followed by LPS stimulation and measured after 24 hrs by Western blot analysis; assay type: functional, cell-based; conditions: Mus musculus
BV-2 [16] = assay: Inhibition of LPS-induced IL6 production in […] BV2 cells preincubated for 4 hrs followed by LPS stimulation and measured after 24 hrs by ELISA; assay type: functional, cell-based; conditions: Mus musculus
BV-2 [17] = assay: Cytotoxicity against […] BV2 cells assessed as survival rate at 500 ug/ml; assay type: cell-based; conditions: mouse

C[C@@H]1CC[C@]2(C(=O)O[C@H]3O[C@@H](CO)[C@H](O)[C@@H](O)[C@@H]3O)CC[C@]3(C)C(=CC[C@@H]4[C@@]5(C)CC[C@H](O)[C@@](C)(CO)[C@@H]5CC[C@]43C)[C@@H]2[C@]1(C)O
Activity (BV-2 [1]): Non-Toxic
inhibition (BV-2 [2]): Active
inhibition (BV-2 [3]): Active

COc1cc2c(cc1OC)C(=O)C(CC1CCN(Cc3ccccc3)CC1)C2 (configuration not stated)
inhibition (BV-2 [4]): Active
inhibition (BV-2 [5]): Active

C=C(C)[C@@H]1CC[C@]2(CO)CC[C@]3(C)[C@H](CC[C@@H]4[C@@]5(C)CC[C@H](O)C(C)(C)[C@@H]5CC[C@]43C)[C@@H]12 [BETULIN]
inhibition (BV-2 [6]): Active
Activity (BV-2 [7]): Non-Toxic
inhibition (BV-2 [8]): Dose-dependent effect
inhibition (BV-2 [9]): Active
inhibition (BV-2 [10]): Active
inhibition (BV-2 [11]): Active
inhibition (BV-2 [12]): Dose-dependent effect
inhibition (BV-2 [13]): Dose-dependent effect
inhibition (BV-2 [14]): Active
inhibition (BV-2 [15]): Dose-dependent effect
inhibition (BV-2 [16]): Dose-dependent effect

C[C@@H]1CC[C@]2(C(=O)O)CC[C@]3(C)C(=CC[C@@H]4[C@@]5(C)CC[C@H](O)[C@@](C)(CO)[C@@H]5CC[C@]43C)[C@@H]2[C@]1(C)O [ROTUNDIC ACID]
Activity (BV-2 [1]): Non-Toxic
inhibition (BV-2 [2]): Active
inhibition (BV-2 [3]): Active

C[C@H]1[C@H](C)CC[C@]2(C(=O)O)CC[C@]3(C)C(=CC[C@@H]4[C@@]5(C)CC[C@H](O)C(C)(C)[C@@H]5CC[C@]43C)[C@H]12 [URSOLIC ACID]
inhibition (BV-2 [2]): Active
Activity (BV-2 [17]): Non-Toxic
inhibition (BV-2 [3]): Active
